Test results published in patent US20260318831A1 (University of Cincinnati, priority 2023, published 2026).

What was measured:
Assay type in all cases: cell-based
[1] = system: endolysosomes in HeLa cells; assay: Dynamics of PyQPMe-stained endolysosomes during autophagy
Experimental: FIGS. 6A-6H depict the dynamics of PyQPMe-stained endolysosomes during autophagy. FIG. 6A. Confocal images of HeLa cells incubated with PyQPMe following treatment with or without CCCP for 24 h. FIG. 6B. Quantification of total endolysosomes and late endosomes/lysosomes in PyQPMe-stained HeLa cells with or without CCCP treatment. FIG. 6C. The ratio of the number of late endosomes/lysosomes to total endolysosomes in PyQPMe-stained HeLa cells treated with or without CCCP. FIG. 6D. Quantification of ratio of red to green intensity in PyQPMe-stained HeLa cells without CCCP treatment. FIG. 6E. Quantification of ratio of red to green intensity in PyQPMe-stained HeLa cells with CCCP treatment for 24 h. FIG. 6F. Confocal images of HeLa cells incubated with PyQPMe following treatment with or without rapamycin for 24 h. FIG. 6G. Quantification of total endolysosomes and late endosomes/lysosomes in PyQPMe-stained HeLa cells with or without rapamycin treatment. FIG. 6H. The ratio of the number of late endosomes/lysosomes to total endolysosomes in PyQPMe-stained HeLa cells treated with or without rapamycin. Data are given as M±SEM (n=10 independent samples from 10 cells for each statistical analysis); the statistical differences were analyzed by Student's t-test, p<0.05 is considered to statistical significant (**** p≤0.0001; ns p>0.05).
Autophagy is a natural degradation process of cells that removes unnecessary or damaged biological macromolecules or organelles to maintain homeostasis. After autophagosomes engulf unnecessary components, both late endosomes and lysosomes can fuse with autophagosomes to degrade autophagosomal cargo by forming amphisomes and autolysosomes, respectively. To study the behavior of endolysosomes during autophagy, carbonyl [COMPOUND LEFT OUT] m-chlorophenyl hydrazone (CCCP), a common inducer for mitophagy (one type of autophagy), was exploited to induce autophagy in PyQPMe-stained cells. Cells were treated with 10 μM CCCP for 24 h prior to PyQPMe staining. […] As mentioned above (FIG. 2C), pH 5-6 is the cut-off point for the red to green fluorescence intensity ratio of PyQPMe, which perfectly matches the pH changes during conversion from early endosomes to late endosomes. […] Inversely, when the ratio is greater than 1, it represents the population of late endosomes/lysosomes (FIGS. 3D, 6D, 6E).
Rapamycin, a classical autophagy inducer, activates autophagy by inhibiting mTOR protein activation. To investigate the effect of rapamycin on endolysosomes, we treated HeLa cells with 0.5 μM rapamycin for 24 h prior to PyQPMe staining. […] To track the dynamics of endolysosomes in classical autophagy, the total endolysosomes and late endosomes/lysosomes in rapamycin-treated cells were quantified. […] Meanwhile, similar to the CCCP-induced mitophagy (FIGS. 6A, 6C), the proportion of late endosomes/lysosomes to total endolysosomes remained the same (~54%) during classical autophagy process (FIG. 6H).
(§1) Leica Stellaris 8 Confocal imaging. High-resolution images were acquired on a commercial Leica Stellaris 8 Confocal Microscope under LIGHTNING mode. Laser powers were set at 10% intensity for 405 nm and 640 nm channels. The objective was 63×/1.4. High-resolution images were captured from the randomly selected field of view and analyzed with Leica LAS X and ImageJ software. All the images were exported on the Auto scale of the Leica LAS X software. Cells were seeded on glassed-bottomed cell dishes (MatTek) for 24 hours. Cells stained with PyQPMe (20 nM, 10 min) were treated with Wortmannin (1 μM, 24 h), CCCP ([…], 24 h), rapamycin (0.5 μM, 24 h), chloroquine (25 μM, 30 min), and NH4Cl (50 mM, 30 min). All PCC values were analyzed in the CellProfiler.

[2] = system: HeLa cells; assay: Photobleaching comparison of LTR and PyQPMe; conditions: continuous confocal laser at 100% power
Excerpt: FIGS. 4A-4G depict the characterization of imaging properties of PyQPMe-stained endolysosomes. FIG. 4A. Confocal image of PyQPMe-stained endolysosomes and fluorescence intensity profile (FIG. 4B) of the write line in FIG. 4A. FIG. 4C. Confocal image of PyQPMe-stained late endosomes/lysosomes and fluorescence intensity profile (FIG. 4D) of the write line in FIG. 4C. FIG. 4E. Confocal images of HeLa cells labeled with LTR and PyQPMe and 3D fluorescence intensity plots of rectangles of integration. FIG. 4F. Continuous imaging of HeLa cells labeled with LTR or PyQPMe at 100% laser intensity for photobleaching, and each scan time was 10 s, images were captured under a red channel. FIG. 4G. Normalized fluorescence intensity of LTR and PyQPMe in FIG. 4F.
Resistance to photobleaching is a crucial property of probes that determines whether they can be used for long-term fluorescence tracking. To characterize this property, a photobleaching comparison study between LTR and PyQPMe was done in HeLa cells (FIG. 4F).
Leica Stellaris 8 Confocal imaging. High-resolution images were acquired on a commercial Leica Stellaris 8 Confocal Microscope under LIGHTNING mode. Laser powers were set at 10% intensity for 405 nm and 640 nm channels. […] High-resolution images were captured from the randomly selected field of view and analyzed with Leica LAS X and ImageJ software. […] All PCC values were analyzed in the CellProfiler.

[3] = system: HeLa cells; assay: Confocal imaging of PyQPMe uptake by endocytosis; conditions: chloroquine 25 μM, 30 min; NH4Cl 50 mM
Experimental: In some aspects, the probes of the present disclosure can be administered to living cells, either in vitro or in vivo. To take advantage of the absorption and emission spectra of PyQPMe, this probe was administered in high-resolution microscopy for living cells. The toxicity of PyQPMe was examined at first before characterizing its imaging properties. Cell Counting Kit-8 (CCK-8) was used to investigate the viability of HeLa cells stained with PyQPMe. […] Next, PyQPMe was characterized by Leica Stellaris Confocal Microscope in the LIGHTNING module for high-resolution imaging. […] The signal tended to be endolysosomes because endolysosomes have a low pH range from 4.7 to 6.3. […] Since low temperatures can inhibit endocytosis, experiments at a lower temperature were performed.
as §1

[4] = system: endolysosomes in HeLa cells; assay: Dynamics of PyQPMe-stained endolysosomes (puncta counting); conditions: wortmannin 1 μM, 24 h
Experimental: FIGS. 5A-5H depict the characterization of dynamics of PyQPMe-stained endolysosomes. FIG. 5A. Confocal images of HeLa cells stained with PyQPMe following treatment with or without Wortmannin for 24 h. FIG. 5B. Schematic illustration of the effect of Wortmannin which inhibits the conversion from early endosomes into late endosomes. FIG. 5C. Quantification of total endolysosomes and late endosomes/lysosomes in PyQPMe-stained HeLa cells with or without Wortmannin treatment. FIG. 5D. The ratio of the number of late endosomes/lysosomes to total endolysosomes in PyQPMe-stained HeLa cells treated with or without Wortmannin. FIG. 5E. Confocal images of HeLa cells stained with PyQPMe for 10 min and 60 min. FIG. 5F. The mean red puncta fluorescence intensity of PyQPMe-stained HeLa cells for 10 min and 60 min incubation. FIG. 5G. Quantification of total endolysosomes and late endosomes/lysosomes in PyQPMe-stained HeLa cells for 10 min and 60 min. FIG. 5H. The ratio of the number of late endosomes/lysosomes to total endolysosomes in PyQPMe-stained HeLa cells for 10 min and 60 min. Data are given as M±SEM (n=10 independent samples from 10 cells for each statistical analysis); the statistical differences were analyzed by Student's t-test, p<0.05 is considered to statistical significant (** p≤0.01; *** p≤0.001; **** p≤0.0001; ns p>0.05).
Because of the popularity of quantitative cell biology, it is important to design powerful tools that can digitize individual cells and subcellular organelles to elucidate biological problems in detail. With its great pH response, long-term photostability, and excellent signal-to-noise ratio for high-resolution imaging, PyQPMe was successfully used to track the dynamics of endolysosomes within cells by counting the number of puncta fluorescence signals in both green and red channels (FIG. 5A).
Next, the effects of different incubation time on the endocytic pathway were tested.
as §1

With `N#CC(C#N)=NNc1cccc(Cl)c1` [CCCP] the “number of total endolysosomes and late endosomes/lysosomes vs controls” value ([1]; CCCP 10 μM, 24 h (mitophagy)) was “significant increase”, the “ratio of late endosomes/lysosomes to total endolysosomes” value ([1]; CCCP 10 μM, 24 h, by counting (FIG. 6C)) was ~ 55% and the “ratio of late endosomes/lysosomes to total endolysosomes from red to green intensity” value ([1]; CCCP 24 h (FIG. 6E), 52% without CCCP (FIG. 6D)) was 56%. For the same compound, the “acidity of early and late endosomes” value ([1]; CCCP, distribution of red to green intensity ratio) was “both early and late endosomes became more acidic”.
In the case of `CN(C)CCNC(=O)CCc1ccc2n1[B-](F)(F)[N+]1=C(c3ccc[nH]3)C=CC1=C2` [LTR, reference compound], the “fluorescence intensity on photobleaching” value [2] is reported as “disappeared rapidly after two scans”.
For `Cl.N` [NH4Cl, reference compound], the “effect of endocytic inhibitor on PyQPMe fluorescence” value [3] was “significant reduction in fluorescence”.
`CCN(CC)CCCC(C)Nc1ccnc2cc(Cl)ccc12` (stereo not drawn) [chloroquine, reference compound] was tested, and the “effect of endocytic inhibitor on PyQPMe fluorescence” value [3] was “significant reduction in fluorescence”.
With `CO[C@H]1C[C@@H]2CC[C@@H](C)[C@@](O)(O2)C(=O)C(=O)N2CCCC[C@H]2C(=O)O[C@H]([C@H](C)C[C@@H]2CC[C@@H](O)[C@H](OC)C2)CC(=O)[C@H](C)/C=C(\C)[C@@H](O)[C@@H](OC)C(=O)[C@H](C)C[C@H](C)/C=C/C=C/C=C/1C` [rapamycin] the “fluorescent spots in both green and red channels” value ([1]; rapamycin 0.5 μM, 24 h) was “more fluorescent spots”, the “number of total endolysosomes and late endosomes/lysosomes” value ([1]; rapamycin 0.5 μM, 24 h) was “significantly increased” and the “proportion of late endosomes/lysosomes to total endolysosomes” value ([1]; rapamycin 0.5 μM, 24 h (FIG. 6H)) was ~ 54%.
In the case of `COC[C@H]1OC(=O)c2coc3c2[C@@]1(C)C1=C(C3=O)[C@@H]2CCC(=O)[C@@]2(C)C[C@H]1OC(C)=O` [wortmannin, reference compound], the “number of endolysosomes vs untreated cells” value [4] is reported as “much higher than that in untreated cells” and the “percentage of late endosomes/lysosomes in total endolysosomes vs untreated” value [4] is reported as “significantly decreased”.
